Legend:
AtCel7A = AtCel7A (Acremonium thermophilum, UniProt A7WNT9); assay: Cellobiose inhibition of MUL hydrolysis by AtCel7A; type: biochemical; details: MUL substrate (5 μM)
Description: The cellobiose inhibition of GH7 CBHs is most often studied on low-Mw model substrates. However, it has been shown that the inhibition of CBHs acting on low-Mw substrates appears to be much stronger than that on cellulose substrates. The Ki values for cellobiose inhibition of GH7 CBHs measured on low-Mw substrates are in the micromolar range [44, 51, 52], whereas those measured on cellulose are in the low- to high-millimolar range [28, 31, 32]. […] Unfortunately, the inhibition of this enzyme on cellulose has not been studied. We also studied the cellobiose inhibition of GH7 CBHs acting on MUL. The initial rates of MUL hydrolysis measured in the presence and absence of added cellobiose were first analyzed according to Equation 1, and the IC50 values were found using Equation 2. […] The inhibition of MUL hydrolysis is attributable to the binding of cellobiose to the product sites (+1/+2) of TrCel7A [52]. […]
For the inhibition of enzyme acting on the low-Mw substrate, the initial rates of the hydrolysis of MUL in the presence and absence of added cellobiose were followed. […] Reactions were stopped by the addition of NH3 (final concentration 0.1 M), and the released 4-methylumbelliferone was quantified by fluorescence using excitation and emission wavelengths of 360 nm and 450 nm, respectively.

TrCel5A = biological target: T1, TrCel5A (Trichoderma reesei, UniProt P07982); assay: Cellobiose inhibition of hydrolysis of 14C-amorphous cellulose by TrCel5A; type: biochemical; details: TrCel5A (5.0 nM), 35°C, not accountable by Equation 5
T1 construct: TrCel7B, TrCel5A, and TrCel12A were purified from the culture filtrate of Tr QM 9414; made in house; host or cells: Trichoderma reesei QM 9414 culture filtrate (native producer)
T1 sequence (P07982 22-418): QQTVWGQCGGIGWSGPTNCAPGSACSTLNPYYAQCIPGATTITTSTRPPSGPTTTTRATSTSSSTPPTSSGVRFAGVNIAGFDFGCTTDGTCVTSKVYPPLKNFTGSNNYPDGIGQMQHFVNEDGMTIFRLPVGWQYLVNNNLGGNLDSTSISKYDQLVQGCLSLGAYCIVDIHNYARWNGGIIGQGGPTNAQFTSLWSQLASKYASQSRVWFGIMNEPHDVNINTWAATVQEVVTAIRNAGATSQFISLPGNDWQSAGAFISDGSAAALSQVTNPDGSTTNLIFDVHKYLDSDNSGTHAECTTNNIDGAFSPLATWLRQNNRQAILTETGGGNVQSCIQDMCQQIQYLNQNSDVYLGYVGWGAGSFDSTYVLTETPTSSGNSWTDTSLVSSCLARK
Description: EGs are a diverse group of enzymes present in all efficient cellulase systems. Their best recognized function is their synergism with CBHs. Depending on the conditions, the degree of synergistic effect may be more than 10-fold. Therefore, the inhibition of the EG component may result in a drastic decrease in the rate of the synergistic hydrolysis of cellulose. The main soluble product of the EG-catalyzed cellulose hydrolysis is cellobiose, but some glucose and higher-order oligosaccharides are also produced. Here, we studied the cellobiose inhibition of the EGs TrCel7B, TrCel5A and TrCel12A with ^14C-amorphous cellulose substrate. The enzyme concentrations and hydrolysis times were adjusted so that the linear region of the time course was studied. The time courses for the hydrolysis of ^14C-amorphous cellulose by TrCel7B in the presence and absence of added cellobiose are shown in Figure 9A. For the results with TrCel5A and TrCel12A, see Additional file 1: Figure S5. […] This figure is reasonably well in line with that measured for TrCel7B on amorphous cellulose using isothermal titration calorimetry. […]
EGs were assessed on ^14C-amorphous cellulose. ^14C-amorphous cellulose (0.5 g l^-1) was incubated (with shaking at 700 rpm) with EG in 50 mM sodium acetate buffer, pH 5.0, containing BSA (0.1 g l^-1) in the presence and absence of added cellobiose. […]

Chain of AtCel7A (A7WNT9 entry or part of it): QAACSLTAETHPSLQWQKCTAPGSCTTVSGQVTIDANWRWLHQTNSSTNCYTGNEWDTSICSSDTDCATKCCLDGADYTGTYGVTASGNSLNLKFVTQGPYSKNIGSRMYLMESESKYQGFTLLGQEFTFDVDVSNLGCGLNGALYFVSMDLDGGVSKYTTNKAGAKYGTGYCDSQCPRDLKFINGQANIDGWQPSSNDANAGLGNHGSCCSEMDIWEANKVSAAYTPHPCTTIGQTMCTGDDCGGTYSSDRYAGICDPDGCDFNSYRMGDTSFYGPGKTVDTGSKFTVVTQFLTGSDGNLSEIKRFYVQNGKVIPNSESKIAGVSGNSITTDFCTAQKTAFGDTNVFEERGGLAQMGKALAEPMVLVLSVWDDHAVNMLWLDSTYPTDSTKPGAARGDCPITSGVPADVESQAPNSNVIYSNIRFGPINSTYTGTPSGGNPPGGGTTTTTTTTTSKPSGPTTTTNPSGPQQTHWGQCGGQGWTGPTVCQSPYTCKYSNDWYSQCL

For `O=C[C@H](O)[C@@H](O)[C@H](O[C@@H]1O[C@H](CO)[C@@H](O)[C@H](O)[C@H]1O)[C@H](O)CO` [cellobiose, Cellobiose], the Ki (AtCel7A; 35°C) was 95 µM, the Ki (AtCel7A; 50°C) was 233 µM and the “IC50 (approximate, by visual inspection of Figure 9B)” value (TrCel5A) was “few hundred millimolar range”.

From paper PMC3726336, “Product inhibition of cellulases studied with ^14C-labeled cellulose substrates” (Biotechnology for Biofuels, 2013)
